Data as given in patent US20170168056A1, “METHODS AND COMPOSITIONS FOR DETECTING AND MODULATING CANCER CELLS” (Massachusetts Institute of Technology, priority 2015, published 2017).

How the values were obtained:
[1] = test system: human breast cancer cell lines; assay: Cell viability (Taxol/paclitaxel efficacy) across a panel of breast cancer cell lines versus endogenous Mena expression; assay type: cell-based; conditions: 9 breast cancer cell lines, 72 h treatment
From the text: Endogenous levels of Mena in breast cancer cell lines correlate with their resistance to Taxol treatment. Initial experiments relied on ectopic expression in a single cell line, we examined a panel breast cancer cell lines with differing levels of endogenous Mena expression for sensitivity to Taxol. […] Essentially, low endogenous Mena correlates with low resistance/reduced viability in Taxol treated cells, while high endogenous Mena correlates with high resistance/viability in Taxol treated cells (FIG. 1F).
Cell viability assay. […] All measurements were repeated in triplicate.
MENA and MENA^INV are associated with increased survival during paclitaxel treatment in vitro. Whether endogenous MENA and MENA^INV expression levels were associated with paclitaxel resistance was examined. MENA and MENA^INV were determined to be widely expressed in all main breast cancer subtypes, as measured by mRNA from TCGA samples, as well as at the protein level by immunohistochemistry (FIGS. 28A, 28B, 28C), with slightly higher expression in patients with Her2+ breast cancer. […] Under the conditions we used, MENA11a co-migrates with the 80 kDa MENA, thus the intensity of the measured the 80 kDa MENA, detected with an antibody known to recognize all MENA isoforms, represents the total amount of 80 kDa MENA plus MENA11a in the cell lines that express both isoforms. […]

Mena = Mena expression in cultured cells after taxane treatment (Western blot, FACS of GFP); assay type: cell-based, human
Description: Taxol treatment induces increased Mena protein expression in vitro and in vivo. As high level of Mena or Mena^INV expression correlated with low response to Taxo, we hypothesized that Taxol treatment might affect Mena expression. […]. After 72 h of treatment with the drug, the expression level of Mena was 70% higher than in vehicle-treated cells.
Western blot. Cells were lysed in 25 mM Tris, 150 mM NaCl, 10% glycerol, 1% NP 40 and […] EDTA with a protease Mini-complete protease inhibitors (Roche) and a phosphatase inhibitor cocktail (PhosSTOP, Roche) at 4° C. for 20 minutes. Protein lysates were separated by SDS-PAGE, transferred to a nitrocellulose membrane and blocked with Odyssey Blocking Buffer (LiCor). Membranes were incubated with primary antibody overnight at 4° C. and Licor secondary antibodies at room temperature for 1 hour. Protein level intensity was measured with Image J.
Paclitaxel treatment selects for high MENA expression in vitro and in vivo. The Examples so far indicate that increased MENA or MENA^INV expression levels are associated with reduced responses to paclitaxel. The effect of paclitaxel treatment on levels of MENA expression in cell populations in vitro and in vivo was examined. First, endogenous MENA expression by Western Blot in 5 breast cancer cell lines that were exposed to 100 nM of paclitaxel or a vehicle control were analyzed (FIG. 33A).

[2] = test system: MDA-MB-231 xenograft tumors; assay: Multiphoton intravital imaging of motile tumor cells; assay type: in vivo, mouse
Description: Intravital imaging. Intravital multiphoton imaging was performed as described previously (Oudin M J, et al. Tumor cell-driven extracellular matrix remodeling enables haptotaxis during metastatic progression. Cancer Discov. 2016; Available from: www.ncbi.nlm.nih.gov/pubmed/26811325) using a 25×1.05 NA water immersion objective with correction lens. After exposing the tumor with a skin flap surgery, 30 minute movies were captured. The number of motile cells in each field of view were count in ten 30 minute time-lapse movies using ImageJ. Motile cells were cells who show any displacement of the nucleus and cell protrusion activity. Data were pooled from 2-4 mice per tumor group, with 4-10 fields imaged per mouse.
MENA and MENA^INV drive increased cell motility and metastasis during tumor progression. Therefore, whether MENA isoform expression impacts cell migration and dissemination after paclitaxel treatment was examined.

[3] = test system: MDA-MB-231 xenograft tumors; assay: Xenograft tumor growth in NOD-SCID mice with chemotherapy treatment; assay type: in vivo, mouse; conditions: three doses Taxol/paclitaxel 10 mg/kg or two doses Doxorubicin 5 mg/kg; for growth of control tumors compared to vehicle: GFP (Control) tumors
Description: Mena or Mena^INV expression blocks Taxol efficacy on tumors in treated animals. Mice with xenograft tumors were generated by injection of MDA-MB-231 cells expressing GFP (Control), GFP-Mena (Mena) or GFP-Mena^INV (Mena^INV) into the mammary fat pads of NOD-SCID mice. […] Tumor size was measured before and after treatment. […] These in vivo findings are consistent with the results obtained in the in vitro data, and indicate that Men/Mena^INV promotes resistance to Taxol as judged by tumor growth.
Xenograft tumor generation and in vivo chemotherapy treatment. All animal experiments were approved by the MIT Division of Comparative Medicine. 2 million MDA-MB-231 cells expressing different MENA isoforms (in PBS and 20% collagen I) were injected into the 4th right mammary fat pad of six week-old female NOD-SCID mice (Taconic). When the tumors reached 1 cm in diameter, mice were treated every five days with either three doses of paclitaxel at 10 mg/kg in 1% DMSO, 3% PEG (MW 400), 1% Tween 80 in PBS by intra-peritoneal injection. In parallel, mice were treated with only in 1% DMSO, 3% PEG (MW 400), 1% Tween 80 in PBS as a vehicle control. One day after the last injection, tumors were measured and mice were use for intravital imaging and then sacrificed. Their tumors and lungs were fixed in 10% formalin overnight, their bone marrow were collected using PBS and cultured in DMEM with 10% fetal bovine serum. The number of tumor cell colonies in cultured bone morrow was counted 1 month after collection. The number of metastasis in each lobe of the lung were counted from lung H&E stained sections visualized by light microscopy and counted by two blinded individuals. Each tumor group contained 3-5 mice.
MENA isoform expression is associated with increased tumor growth in vivo during paclitaxel treatment. Whether MENA-associated paclitaxel resistance could also be observed in vivo was examined. Xenograft tumors were generated by injecting MDA-MB-231 cells expressing MENA isoforms into the mammary fat pads of NOD-SCID mice. Mice were treated with paclitaxel once tumors reached 1 cm in diameter (FIG. 30A).

In the case of `CC(=O)O[C@H]1C(=O)[C@@]2(C)[C@H]([C@H](OC(=O)c3ccccc3)[C@]3(O)C[C@H](OC(=O)[C@H](O)[C@@H](NC(=O)c4ccccc4)c4ccccc4)C(C)=C1C3(C)C)[C@]1(OC(C)=O)CO[C@@H]1C[C@@H]2O` [paclitaxel], the “correlation between drug efficacy (cell survival) and endogenous Mena expression” value [1] is reported as “significant inverse correlation”, the “correlation between drug efficacy (cell survival) and endogenous Mena expression” value ([1]; listed as Taxol) is reported as “highly significant anti-correlation” and the “endogenous MENA expression by Western Blot” value (Mena; 5 breast cancer cell lines, 100 nM paclitaxel, 72 hours, vs vehicle) is reported as “some cell lines (MDA-MB-231 and MDA-MB-175VII) showed increased MENA expression”. For the same compound, the “FACS analysis of GFP expression levels after taxane treatment” value (Mena; MDA-MB-231 populations expressing GFP, GFP-MENA or GFP-MENA^INV) was “selected for high-Mena^INV-GFP expressing cells”, the “expression level of Mena higher than in vehicle-treated cells” value (Mena; after 72 h of treatment) was 70% and the “number of cells moving within tumors” value ([2]; 231-Control tumors) was “significantly reduced”. For the same compound, the “motility of tumor cells in vivo” value ([2]; 231-MENA and 231-MENA^INV tumors) was “not affected”, the “growth of control tumors compared to vehicle” value [3] was “significantly decreased the growth of 231-Control tumors” and the “growth of control tumors compared to vehicle” value ([3]; listed as Taxol) was “significantly decreased growth of control tumors”. For the same compound, the “growth / response of Mena or Mena^INV tumors” value ([3]; Mena or Mena^INV expressing tumors) was “unaffected”.
